From patent US7632829B2, “Diazepan derivatives” (Hoffmann-La Roche Inc., priority 2006, dated 2009)

biological target: T1, human chemokine receptor 2 isoform B (Homo sapiens, UniProt P41597); assay: Calcium mobilization assay (FLIPR, CHOK1-CCR2B-A5 cells, 20 nM MCP-1); format: cell-based; details: Ca mobilisation assay, CCR2, antagonist activity vs 20 nM MCP-1
T1 construct: host or cells: CHOK1-CCR2B-A5 (CHO-K1)
T1 sequence (P41597 1-360 isoform P41597-2): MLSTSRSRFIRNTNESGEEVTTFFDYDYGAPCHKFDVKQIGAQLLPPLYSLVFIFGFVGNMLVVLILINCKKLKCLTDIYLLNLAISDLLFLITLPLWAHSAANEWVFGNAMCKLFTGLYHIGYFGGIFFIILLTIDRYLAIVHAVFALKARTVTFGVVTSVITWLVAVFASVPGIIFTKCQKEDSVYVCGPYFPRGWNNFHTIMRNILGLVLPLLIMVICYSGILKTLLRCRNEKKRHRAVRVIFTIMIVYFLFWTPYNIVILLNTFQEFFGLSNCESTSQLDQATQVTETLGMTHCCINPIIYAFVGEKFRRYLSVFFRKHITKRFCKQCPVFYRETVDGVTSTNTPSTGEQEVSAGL
In short: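 FLIPR Fluo-4 calcium readout in CHO-K1 cells stably overexpressing human CCR2B; compounds first monitored 80 s for agonist activity, then after 20-30 min at 30 °C challenged with 20 nM MCP-1. Response is max minus basal fluorescence; antagonist value is concentration giving 50% inhibition of specific calcium increase.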

Row | Structure (SMILES) | IC50 [nM]
1 | CC(=O)NC1CCN(CC(O)CCN2CCN(C(=O)/C=C/c3ccc(Cl)c(Cl)c3)CCC2=O)CC1 (racemic) [Example 370] | 341
2 | C[C@@H]1CN(CC(O)CCN2CCN(C(=O)/C=C/c3ccc(Cl)c(Cl)c3)CCC2=O)CC[C@H]1O (mixture of isomers) [Example 372, (rac)-1-[(E)-3-(3,4-Dichloro-phenyl)-acryloyl]-4-[3-hydroxy-4-(trans-4-hydroxy-3-methyl-piperidin-1-yl)-butyl]-[1,4]diazepan-5-one] | 1230
3 | O=C(/C=C/c1ccc(Cl)c(Cl)c1)N1CCC(=O)N(CCC(O)CN2CCCCC2CO)CC1 (racemic) [Example 374] | 580
4 | CC1CCCCN1CC(O)CCN1CCN(C(=O)/C=C/c2ccc(Cl)c(Cl)c2)CCC1=O (racemic) [Example 375] | 274
5 | CC1CCCN(CC(O)CCN2CCN(C(=O)/C=C/c3ccc(Cl)c(Cl)c3)CCC2=O)C1 (racemic) [Example 376] | 416
6 | CC1CCN(CC(O)CCN2CCN(C(=O)/C=C/c3ccc(Cl)c(Cl)c3)CCC2=O)CC1 (racemic) [Example 377] | 697
7 | O=C(/C=C/c1ccc(Cl)c(Cl)c1)N1CCC(=O)N(CCC(O)CN2CCCC(CO)C2)CC1 (racemic) [Example 378] | 1240
8 | O=C(/C=C/c1ccc(Cl)c(Cl)c1)N1CCC(=O)N(CCC(O)CN2CCC(CO)CC2)CC1 (racemic) [Example 379] | 1500
9 | CC1(CO)CCCN1CC(O)CCN1CCN(C(=O)/C=C/c2ccc(Cl)c(Cl)c2)CCC1=O (racemic) [Example 381] | 236
10 | O=C(/C=C/c1ccc(F)c(Cl)c1)N1CCC(=O)N(CCCCN2CCCC(O)C2)CC1 (racemic) [Example 383] | 198
11 | O=C(/C=C/c1ccc(F)c(Cl)c1)N1CCC(=O)N(CCCCN2CCCC(CO)C2)CC1 (racemic) [Example 385] | 310
12 | O=C(/C=C/c1ccc(F)c(Cl)c1)N1CCC(=O)N(CCCCN2CCCCC2CO)CC1 (racemic) [Example 387] | 584
13 | O=C(/C=C/c1ccc(F)c(Cl)c1)N1CCC(=O)N(CCCCN2CC[C@H](O)[C@H](F)C2)CC1 (racemic) [Example 390] | 1100
14 | COCC1CCCN(CCCCN2CCN(C(=O)/C=C/c3ccc(F)c(Cl)c3)CCC2=O)C1 (racemic) [Example 392] | 54
15 | O=C(/C=C/c1ccc(F)c(Cl)c1)N1CCC(=O)N(CCCCN2CCC(O)C2)CC1 (racemic) [Example 393] | 878
16 | O=C(/C=C/c1ccc(F)c(Cl)c1)N1CCC(=O)N(CCCCN2CC[C@@H](O)[C@H](F)C2)CC1 (racemic) [Example 394] | 551
17 | COC1CCCN(CCCCN2CCN(C(=O)/C=C/c3ccc(F)c(Cl)c3)CCC2=O)C1 (racemic) [Example 395] | 996
18 | CC1CN(CCCCN2CCN(C(=O)/C=C/c3ccc(F)c(Cl)c3)CCC2=O)CCC1O (racemic) [Example 400] | 264
19 | CC1(CO)CCCCN1CCCCN1CCN(C(=O)/C=C/c2ccc(F)c(Cl)c2)CCC1=O (racemic) [Example 407] | 264
20 | CC1CCC(O)CN1CCCCN1CCN(C(=O)/C=C/c2ccc(Cl)c(F)c2)CCC1=O (racemic) [Example 413] | 77
21 | O=C(/C=C/c1ccc(Cl)c(F)c1)N1CCC(=O)N(CCCCN2CC(O)CCC2CO)CC1 (racemic) [Example 414] | 65
22 | COCC1CCC(O)CN1CCCCN1CCN(C(=O)/C=C/c2ccc(Cl)c(F)c2)CCC1=O (racemic) [Example 418] | 1470
23 | O=C(/C=C/c1ccc(Cl)c(F)c1)N1CCC(=O)N(CCCCN2CCC[C@H](O)[C@@H]2CO)CC1 (racemic) [Example 419] | 250
24 | CC1(C)CCN(CCCCN2CCN(C(=O)/C=C/c3ccc(Cl)c(F)c3)CCC2=O)CC1O (racemic) [Example 420] | 52
25 | O=C(/C=C/c1ccc(Cl)c(Cl)c1)N1CCC(=O)N(CCCCN2CCCC(CO)C2)CC1 (racemic) [Example 425] | 89
26 | O=C(/C=C/c1ccc(Cl)c(Cl)c1)N1CCC(=O)N(CCCCN2CCCCC2CO)CC1 (racemic) [Example 427, (rac)-1-[(E)-3-(3,4-Dichloro-phenyl)-acryloy]-4-[4-(2-hydroxymethyl-piperidin-1-yl)-butyl]-[1,4]diazepan-5-one] | 259
27 | O=C(/C=C/c1ccc(Cl)c(Cl)c1)N1CCC(=O)N(CCCCN2CC[C@@H](O)[C@@H](F)C2)CC1 (racemic) [Example 430, (rac,cis)-1-[(E)-3-(3,4-Dichloro-phenyl)-acryloyl]-4-[4-(3-fluoro-4-hydroxy-piperidin-1-yl)-butyl]-[1,4]diazepan-5-one] | 352
28 | CC1(O)CCCN(CCCCN2CCN(C(=O)/C=C/c3ccc(Cl)c(Cl)c3)CCC2=O)C1 (racemic) [Example 431] | 448

Row | Structure (SMILES) | IC50 [nM]
29 | COCC1CCCN(CCCCN2CCN(C(=O)/C=C/c3ccc(Cl)c(Cl)c3)CCC2=O)C1 (racemic) [Example 432] | 16
30 | O=C(/C=C/c1ccc(Cl)c(Cl)c1)N1CCC(=O)N(CCCCN2CCC(O)C2)CC1 (racemic) [Example 433] | 244
31 | COC1CCCN(CCCCN2CCN(C(=O)/C=C/c3ccc(Cl)c(Cl)c3)CCC2=O)C1 (racemic) [Example 435] | 281
32 | CC1CN(CCCCN2CCN(C(=O)/C=C/c3ccc(Cl)c(Cl)c3)CCC2=O)CCC1O (racemic) [Example 440] | 103
33 | CC1(CO)CCCN(CCCCN2CCN(C(=O)/C=C/c3ccc(Cl)c(Cl)c3)CCC2=O)C1 (racemic) [Example 445] | 354
34 | COCC1(C)CCCN(CCCCN2CCN(C(=O)/C=C/c3ccc(Cl)c(Cl)c3)CCC2=O)C1 (racemic) [Example 446] | 626
35 | CC1(CO)CCCCN1CCCCN1CCN(C(=O)/C=C/c2ccc(Cl)c(Cl)c2)CCC1=O (racemic) [Example 447] | 92
36 | CC1CCN(CCCCN2CCN(C(=O)/C=C/c3ccc(Cl)c(Cl)c3)CCC2=O)CC1O (racemic) [Example 448] | 181
37 | O=C(/C=C/c1ccc(Cl)c(Cl)c1)N1CCC(=O)N(CCCCN2CCC(O)C(CO)C2)CC1 (racemic) [Example 450, (rac)-1-[(E)-3-(3,4-Dichloro-phenyl)-acryloyl]-4-[4-(4-hydroxy-3-hydroxymethyl-piperidin-1-yl)-butyl]-[1,4]diazepan-5-one] | 243
38 | COCC1CN(CCCCN2CCN(C(=O)/C=C/c3ccc(Cl)c(Cl)c3)CCC2=O)CCC1O (racemic) [Example 451] | 682
39 | C[C@@H]1CCN(CCCCN2CCN(C(=O)/C=C/c3ccc(Cl)c(Cl)c3)CCC2=O)C[C@H]1O (racemic) [Example 454, (rac)-1-[(E)-3-(3,4-Dichloro-phenyl)-acryloyl]-4-[4-(trans-3-hydroxy-4-methyl-piperidin-1-yl)-butyl]-[1,4]diazepan-5-one] | 230
40 | C[C@@H]1CN(CCCCN2CCN(C(=O)/C=C/c3ccc(Cl)c(Cl)c3)CCC2=O)CC[C@H]1O (racemic) [Example 455, (rac)-1-[(E)-3-(3,4-Dichloro-phenyl)-acryloyl]-4-[4-(trans-4-hydroxy-3-methyl-piperidin-1-yl)-butyl]-[1,4]diazepan-5-one] | 106
41 | O=C(/C=C/c1ccc(Cl)c(Cl)c1)N1CCC(=O)N(CCCCN2CCC3(CC3)C(O)C2)CC1 (racemic) [Example 456] | 16
42 | O=C(/C=C/c1ccc(Cl)c(Cl)c1)N1CCC(=O)N(CCCCN2CCC(O)C3(CC3)C2)CC1 (racemic) [Example 457] | 283
43 | C[C@@H]1CN(CCCCN2CCN(C(=O)/C=C/c3ccc(Cl)c(Cl)c3)CCC2=O)CC[C@@H]1O (racemic) [Example 458] | 148
44 | CC1(CO)CCN(CCCCN2CCN(C(=O)/C=C/c3ccc(Cl)c(Cl)c3)CCC2=O)CC1 (racemic) [Example 459] | 267
45 | CC1(CO)CCCN1CCCCN1CCN(C(=O)/C=C/c2ccc(Cl)c(Cl)c2)CCC1=O (racemic) [Example 462] | 41
46 | CC1(C)CN(CCCCN2CCN(C(=O)/C=C/c3ccc(Cl)c(Cl)c3)CCC2=O)CCC1O (racemic) [Example 464] | 226
47 | CC(=O)NC1CCCN(CCCCN2CCN(C(=O)/C=C/c3ccc(Cl)c(Cl)c3)CCC2=O)C1 (racemic) [Example 466] | 389
48 | O=C(/C=C/c1ccc(Cl)c(Cl)c1)N1CCC(=O)N(CCCCN2CCC3(CCCO3)CC2)CC1 (racemic) [Example 467] | 1160
49 | O=C(/C=C/c1ccc(Cl)c(Cl)c1)N1CCC(=O)N(CCCCN2CC[C@H](CO)[C@H](O)C2)CC1 (racemic) [Example 468] | 347
50 | COC[C@H]1CCN(CCCCN2CCN(C(=O)/C=C/c3ccc(Cl)c(Cl)c3)CCC2=O)C[C@H]1O (racemic) [Example 469] | 61
51 | COC[C@H]1CCN(CCCCN2CCN(C(=O)/C=C/c3ccc(Cl)c(Cl)c3)CCC2=O)C[C@H]1OC (racemic) [Example 470] | 85
52 | O=C(/C=C/c1ccc(Cl)c(Cl)c1)N1CCC(=O)N(CCCCN2CC[C@@H](CO)[C@H](O)C2)CC1 (racemic) [Example 471] | 43
53 | CO[C@@H]1CN(CCCCN2CCN(C(=O)/C=C/c3ccc(Cl)c(Cl)c3)CCC2=O)CC[C@@H]1CO (racemic) [Example 472] | 418
54 | CC1CCC(O)CN1CCCCN1CCN(C(=O)/C=C/c2ccc(Cl)c(Cl)c2)CCC1=O (racemic) [Example 475] | 20
55 | O=C(/C=C/c1ccc(Cl)c(Cl)c1)N1CCC(=O)N(CCCCN2CC(O)CCC2CO)CC1 (racemic) [Example 476] | 18
